Laboratory results taken from patent US20200046869A1, “USE OF ZINC TREATED PRECIPITATED CALCIUM CARBONATE IN HYGIENIC PRODUCTS” (Omya International AG, priority 2017, published 2020).

Assays:
[1] = system: Aerobe bacteria (TSA plates); test: Plate count of aerobe total viable count in zinc containing powders; format: cell-based; settings: powder in disruption buffer, 48 hours at 30° C., detection limit 100 cfu/g
Procedure: (§1) The microbial contamination (bacterial and fungi growth) of three different zinc containing powder samples was determined by the plate count method (spread count) according to the following procedure: 1 g of the respective powder and 9 ml sterile disruption buffer (DB) were weighed into a sterile 50 ml test tube (Greiner) under aseptic conditions using an autoclaved disposable spatula (VWR) in order to obtain suspensions of the zinc containing powder samples. To detach the microorganisms from the zinc containing powders samples, the suspensions were shaken on a vortex for 60 sec. at 2500 rpm before being put on a shaker for 30 minutes at motor setting 1400 (at room temperature, i.e. 21° C.). The sample to be analyzed was appropriately diluted and a defined volume no greater than 0.1 ml was spread over the surface of an agar plate using a sterile glass/plastic spreader. The agar plates were then incubated upside down (condensed water) for a defined period of time at a defined temperature. The sample to be analyzed was diluted 1:10 in PBS and 100 μl of the dilution was spread onto the TSA plate which was incubated for 48 hours at 30° C. The plates were evaluated by counting the grown colonies, thereby taking into account that only plates containing between 30-300 colonies have a high statistical significance. […]

Fungi = test: Plate count of fungal growth in zinc containing powders; format: cell-based; settings: powder in disruption buffer, Sabouraud-Glucose agar, 7 days at 25° C.; detection limit 10 cfu/g
Procedure: as §1, with “dilution were” for “dilution was”, “the” for “the TSA”, “for 7 days” for “for 48 hours”, “at 25°” for “at 30°”

| Structure (SMILES) | TVC Aerobe [1] [cfu/g] | TVC Fungi (Fungi) [cfu/g] |
| --- | --- | --- |
| O=C([O-])[O-].[Zn+2] [ZnCaCO3, ZnCO3] | <100 | <10 |
| [O]=[Zn] [ZnO] | <100 | <10 |
